Test results reported in patent publication US12329727B2, “Use of salmeterol as an anti-coronaviral agent” (priority 2020, dated 2025).
Like-named read-outs stand apart in the source and are kept apart here.

Key:
[1] = test system: NAADP-evoked Ca2+ release (TPC activity); type: biochemical, sea urchin
mast cell degranulation = conditions: human lung; cited from earlier work
SARS-CoV-2 pseudovirus = type: cell-based, SARS-CoV-2; HEK293 cells expressing ACE2
ciliary beat frequency = conditions: cited from earlier work
MERS-pseudovirus = type: cell-based, MERS-COV; Huh7 cells

Compound: OCc1cc(C(O)CNCCCCCCOCCCCc2ccccc2)ccc1O (racemic) [salmeterol, (RS)-2-(hydroxymethyl)-4-{1-hydroxy-2-[6-(4-phenylbutoxy)hexylamino]ethyl}phenol]
- inhibition of TPC activity [1]: able to inhibit
- rank for TPC inhibition (amplitude of NAADP-evoked Ca2+ release, rank #1 = greatest inhibition) [1]: 16/1534
- mast cell degranulation (mast cell degranulation): potent and long-lasting inhibition
- inhibition of SARS-CoV-2 pseudovirus infectivity (SARS-CoV-2 pseudovirus; 10 μM): pronounced inhibition
- ciliary beat frequency (ciliary beat frequency): rapid and prolonged increase
- inhibition of MERS-COV infectivity in a pseudovirus translocation assay (MERS-pseudovirus): potent and penetrant

Compound: NCCOB(c1ccccc1)c1ccccc1 [2-APB]
- inhibition of SARS-CoV-2 pseudovirus infectivity (SARS-CoV-2 pseudovirus; 10 μM): no effect

Compound: CC(=O)OCOC(=O)CN(CC(=O)OCOC(C)=O)c1ccccc1OCCOc1ccccc1N(CC(=O)OCOC(C)=O)CC(=O)OCOC(C)=O [BAPTA-AM]
- inhibition of SARS-CoV-2 pseudovirus infectivity (SARS-CoV-2 pseudovirus): nearly complete inhibition

Compound: ryanodine
- inhibition of SARS-CoV-2 pseudovirus infectivity (SARS-CoV-2 pseudovirus; 10 μM): no effect

Compound: xestospongin
- inhibition of SARS-CoV-2 pseudovirus infectivity (SARS-CoV-2 pseudovirus; 10 μM): no effect
